Laboratory results taken from the supplement of paper PMC10627819.

How the values were obtained:
Test in all cases: fitness (endpoint OD595 vs no drug) (fraction); higher = more growth
B. subtilis 168 = system: B. subtilis 168
In short: (§1)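 Plates with 384 wells were inoculated at OD595 0.01 using 30 µl of TSB, LB Lennox or CY, or 55 µl for S. pneumoniae. Incubation was at 37 °C, with OD595 measured every 30 min for 14 h. Fitness is the stationary-phase transition optical density over the robust mean of no-drug control wells, after first-reading background subtraction; it is capped at 1.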

S. aureus Newman = system: S. aureus Newman
In short: as §1

S. pneumoniae D39V = system: S. pneumoniae D39V
In short: as §1

S. aureus DSM 20231 = system: S. aureus DSM 20231
In short: as §1

O=C(O)c1cn(C2CC2)c2cc(N3CCNCC3)c(F)cc2c1=O [Ciprofloxacin] + CC1=C(C(=O)O)N2C(=O)[C@@H](NC(=O)[C@H](N)c3ccccc3)[C@H]2SC1 [Cephalexin]
Details	fitness
B. subtilis 168, first compound 0.0098 µg/mL, partner 0.125 µg/mL	0.886
B. subtilis 168, first compound 0.0098 µg/mL, partner 0.25 µg/mL	0.88
B. subtilis 168, first compound 0.0098 µg/mL, partner 0.5 µg/mL	0.829
B. subtilis 168, first compound 0.0195 µg/mL, partner 0.125 µg/mL	0.69
B. subtilis 168, first compound 0.0195 µg/mL, partner 0.25 µg/mL	0.68
B. subtilis 168, first compound 0.0195 µg/mL, partner 0.5 µg/mL	0.705
B. subtilis 168, first compound 0.039 µg/mL, partner 0.125 µg/mL	0.0501
B. subtilis 168, first compound 0.039 µg/mL, partner 0.25 µg/mL	0.0506
B. subtilis 168, first compound 0.039 µg/mL, partner 0.5 µg/mL	0.062
S. aureus Newman, first compound 0.0375 µg/mL, partner 0.25 µg/mL	0.732
S. aureus Newman, first compound 0.0375 µg/mL, partner 0.5 µg/mL	0.77
S. aureus Newman, first compound 0.0375 µg/mL, partner 1 µg/mL	0.753
S. aureus Newman, first compound 0.075 µg/mL, partner 0.25 µg/mL	0.727
S. aureus Newman, first compound 0.075 µg/mL, partner 0.5 µg/mL	0.725
S. aureus Newman, first compound 0.075 µg/mL, partner 1 µg/mL	0.733
S. pneumoniae D39V, first compound 0.125 µg/mL, partner 2 µg/mL	0.0158
S. pneumoniae D39V, first compound 0.125 µg/mL, partner 4 µg/mL	0.0138
S. pneumoniae D39V, first compound 0.5 µg/mL, partner 2 µg/mL	0.0332
S. pneumoniae D39V, first compound 0.5 µg/mL, partner 4 µg/mL	0.0303

one replicate
Details	fitness
B. subtilis 168, first compound 0.0098 µg/mL, partner 1 µg/mL	0.951
B. subtilis 168, first compound 0.0195 µg/mL, partner 1 µg/mL	0.75
B. subtilis 168, first compound 0.039 µg/mL, partner 1 µg/mL	0.183
S. pneumoniae D39V, first compound 0.125 µg/mL, partner 0.125 µg/mL	≥ 1
S. pneumoniae D39V, first compound 0.125 µg/mL, partner 0.25 µg/mL	0.996
S. pneumoniae D39V, first compound 0.125 µg/mL, partner 0.5 µg/mL	0.942
S. pneumoniae D39V, first compound 0.25 µg/mL, partner 0.125 µg/mL	0.82
S. pneumoniae D39V, first compound 0.25 µg/mL, partner 0.25 µg/mL	0.849
S. pneumoniae D39V, first compound 0.25 µg/mL, partner 0.5 µg/mL	0.886
S. pneumoniae D39V, first compound 0.25 µg/mL, partner 1 µg/mL	0.686
S. pneumoniae D39V, first compound 0.25 µg/mL, partner 2 µg/mL	0
S. pneumoniae D39V, first compound 0.25 µg/mL, partner 4 µg/mL	0
S. pneumoniae D39V, first compound 0.5 µg/mL, partner 0.125 µg/mL	0.473
S. pneumoniae D39V, first compound 0.5 µg/mL, partner 0.25 µg/mL	0.552
S. pneumoniae D39V, first compound 0.5 µg/mL, partner 0.5 µg/mL	0.583

O=C(O)c1cn(C2CC2)c2cc(N3CCNCC3)c(F)cc2c1=O [Ciprofloxacin] + CO/N=C(\C(=O)N[C@@H]1C(=O)N2C(C(=O)[O-])=C(C[N+]3(C)CCCC3)CS[C@H]12)c1csc(N)n1 [Cefepime]
Details	fitness
S. aureus Newman, first compound 0.0375 µg/mL, partner 0.125 µg/mL	0.764
S. aureus Newman, first compound 0.0375 µg/mL, partner 0.25 µg/mL	0.684
S. aureus Newman, first compound 0.0375 µg/mL, partner 0.5 µg/mL	0.642
S. aureus Newman, first compound 0.075 µg/mL, partner 0.125 µg/mL	0.686
S. aureus Newman, first compound 0.075 µg/mL, partner 0.25 µg/mL	0.667
S. aureus Newman, first compound 0.075 µg/mL, partner 0.5 µg/mL	0.604
S. pneumoniae D39V, first compound 0.125 µg/mL, partner 0.007 µg/mL	0.991
S. pneumoniae D39V, first compound 0.125 µg/mL, partner 0.0078 µg/mL	≥ 1
S. pneumoniae D39V, first compound 0.125 µg/mL, partner 0.014 µg/mL	≥ 1
S. pneumoniae D39V, first compound 0.125 µg/mL, partner 0.0155 µg/mL	0.935
S. pneumoniae D39V, first compound 0.125 µg/mL, partner 0.028 µg/mL	0.917
S. pneumoniae D39V, first compound 0.25 µg/mL, partner 0.007 µg/mL	0.942
S. pneumoniae D39V, first compound 0.25 µg/mL, partner 0.014 µg/mL	0.972
S. pneumoniae D39V, first compound 0.25 µg/mL, partner 0.028 µg/mL	0.841
S. pneumoniae D39V, first compound 0.5 µg/mL, partner 0.007 µg/mL	0.877
S. pneumoniae D39V, first compound 0.5 µg/mL, partner 0.0078 µg/mL	0.811
S. pneumoniae D39V, first compound 0.5 µg/mL, partner 0.014 µg/mL	0.903
S. pneumoniae D39V, first compound 0.5 µg/mL, partner 0.0155 µg/mL	0.734
S. pneumoniae D39V, first compound 0.5 µg/mL, partner 0.028 µg/mL	0.779
S. pneumoniae D39V, first compound 0.5 µg/mL, partner 0.031 µg/mL	0.289

S. pneumoniae D39V, first compound 0.25 µg/mL, one replicate
Details	fitness
partner 0.0078 µg/mL	0.929
partner 0.0155 µg/mL	0.959
partner 0.031 µg/mL	0.741

CC(=O)Oc1ccccc1C(=O)O [Acetylsalicylic acid] + COc1cc(Cc2cnc(N)nc2N)cc(OC)c1OC [Trimethoprim]
fitness, S. aureus DSM 20231
Details	partner 0.125 µg/mL	partner 0.25 µg/mL	partner 0.5 µg/mL	partner 1 µg/mL
first compound 250 µg/mL	0.582	0.516	0.225	0.0606
first compound 500 µg/mL	–	–	0.276	0.0647
first compound 1000 µg/mL	0.4	–	0.23	0.0318

CC(=O)Oc1ccccc1C(=O)O [Acetylsalicylic acid] + N[C@@H]1CONC1=O [Cycloserine D]
S. aureus DSM 20231, first compound 250 µg/mL
Details	fitness
partner 0.375 µg/mL	0.96
partner 0.75 µg/mL	0.953
partner 1.5 µg/mL	0.93
